Target: T1, human D4 receptor (Homo sapiens, UniProt P21917, DEL265-296)
T1 construct: expressed in transfected cells
T1 sequence (P21917 with tags, fused parts or gaps DEL265-296): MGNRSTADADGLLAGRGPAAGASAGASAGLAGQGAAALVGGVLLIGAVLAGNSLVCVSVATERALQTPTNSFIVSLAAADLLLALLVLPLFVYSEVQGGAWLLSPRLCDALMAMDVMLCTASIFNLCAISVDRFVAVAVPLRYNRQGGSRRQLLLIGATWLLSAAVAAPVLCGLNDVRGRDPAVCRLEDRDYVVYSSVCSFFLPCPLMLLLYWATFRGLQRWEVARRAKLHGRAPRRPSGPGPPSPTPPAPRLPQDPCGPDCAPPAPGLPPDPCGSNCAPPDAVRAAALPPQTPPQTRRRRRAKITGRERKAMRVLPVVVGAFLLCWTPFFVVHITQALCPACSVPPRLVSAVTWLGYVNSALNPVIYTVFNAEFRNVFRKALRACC
Experiment: [3H]Spiperone ligand binding assay (Scatchard analysis) on membranes of stable D4 cell line
Conditions: stably expressed human D4 receptor, Scatchard analysis (FIG. 4)
Description: Cell membranes were prepared from 150 mM tissue culture dishes by suspending the cells in assay buffer [50 mM Tris-HCl, pH 7.4 containing 5 mM EDTA, 1.5 mM CaCl2, 5 mM MgCl2, 5 mM KCl, 120 NaCl]. The cells were homogenized using a Teflon pestle. Unbroken cells and nuclei were pelleted at 39,000×g for 15 minutes and the resulting pellet was resuspended in assay buffer at a concentration of 150-250 μg protein/ml.
Assays were terminated by washing 3×4 ml with cold 50 mM Tris-HCl, pH 7.4, followed by rapid filtration through a cell harvester and filters were monitored for tritium using the L56000SC (Beckman) counter. Binding data was analyzed using the GRAFIT software package.

Compound: O=C(CCCN1CCC2(CC1)C(=O)NCN2c1ccccc1)c1ccc(F)cc1 [[^3 H]-labelled spiperone, spiperone]
- maximum spiperone-binding of the D4 receptor: 4,344 fmol/mg protein

From US5846823A, “Expression of human D4 dopamine receptors in stable cell lines” (Allelix Biopharmaceuticals, priority 1996, dated 1998)
